Data published in US20090105349A1, “ANDROGEN MODULATORS” (WARNER-LAMBERT COMPANY LLC, priority 2004, published 2009).

How the values were obtained:
[1] = biological target: T1, hAR (human androgen receptor) (Homo sapiens, UniProt P10275); assay: Competitive hAR binding assay with 3H-DHT tracer; conditions: baculovirus/Sf9 hAR extract, 1 nM 3H-DHT, one hour at 4° C; mean of multiple tests; read-out: AR Binding IC50
T1 construct: made in house; host or cells: baculovirus/Sf9 insect cells (crude extract)
T1 sequence (P10275 1-920): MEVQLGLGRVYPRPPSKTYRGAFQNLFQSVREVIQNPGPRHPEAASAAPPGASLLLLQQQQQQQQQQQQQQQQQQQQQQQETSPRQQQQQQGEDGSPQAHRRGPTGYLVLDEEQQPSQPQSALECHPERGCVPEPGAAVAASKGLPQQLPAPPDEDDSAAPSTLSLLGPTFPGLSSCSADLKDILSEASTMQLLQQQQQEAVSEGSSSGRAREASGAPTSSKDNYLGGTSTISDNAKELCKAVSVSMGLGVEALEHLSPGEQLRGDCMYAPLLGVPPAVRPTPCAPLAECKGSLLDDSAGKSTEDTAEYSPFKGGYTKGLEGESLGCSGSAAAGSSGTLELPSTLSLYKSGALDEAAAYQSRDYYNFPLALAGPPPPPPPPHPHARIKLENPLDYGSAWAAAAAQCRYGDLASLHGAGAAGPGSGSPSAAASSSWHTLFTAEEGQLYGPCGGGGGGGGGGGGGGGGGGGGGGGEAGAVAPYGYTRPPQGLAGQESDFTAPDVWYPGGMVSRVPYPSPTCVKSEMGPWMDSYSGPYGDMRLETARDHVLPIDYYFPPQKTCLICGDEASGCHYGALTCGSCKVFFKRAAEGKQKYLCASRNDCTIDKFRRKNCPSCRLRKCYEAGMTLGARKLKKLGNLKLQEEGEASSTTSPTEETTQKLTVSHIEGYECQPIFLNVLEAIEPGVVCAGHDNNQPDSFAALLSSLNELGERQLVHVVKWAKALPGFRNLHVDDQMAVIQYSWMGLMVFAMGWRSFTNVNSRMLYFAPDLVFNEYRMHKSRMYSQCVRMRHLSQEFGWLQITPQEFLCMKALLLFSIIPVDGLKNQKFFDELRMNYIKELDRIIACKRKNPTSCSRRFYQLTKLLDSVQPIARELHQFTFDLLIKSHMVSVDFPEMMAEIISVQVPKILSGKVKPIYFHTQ

[2] = test system: male Syrian hamsters (ear sebaceous glands, sebum); assay: Animal model for inhibition of sebum production (hamster ear); assay type: in vivo, Syrian hamster; conditions: 3 % w/v, 4 weeks
Protocol: Arch. Derm. […] This model uses male Syrian hamsters, whose ears contain sebaceous glands.
Testing for sebum inhibition was carried out in the following manner. Male Syrian hamsters aged 9 to 10 weeks were introduced into the laboratory environment and acclimated for 2 weeks prior to use in the study. Each group consisted of 5 animals and run in parallel with vehicle and positive controls. Prior to administration, a sufficient quantity each compound was dissolved in 1 mL of the vehicle identified in Table III to achieve the final concentration reported in Table Ill.
Animals were dosed topically twice daily, five days a week, for 4 weeks. Each dose consisted of 25 micro liters of vehicle control or drug. The dose was applied to the ventral surfaces of both the right and left ears. All animals were sacrificed approximately 18-24 hours after the final dose. The right ears were collected from each animal and used for sebum analysis.
The ears were prepped for HPLC analysis in the following manner. One 8 mm distal biopsy punch was taken, just above the anatomical “V” mark in the ear to normalize the sample area. The punch was pulled apart. The ventral biopsy surface (the area where the topical dose was directly applied to the sebaceous glands) was retained for testing and the dorsal surface of the biopsy punch was discarded.
Tissue samples were blown with N2 gas and stored at −80° C. under nitrogen until HPLC analysis. In addition to ear samples, an aliquot of each drug and vehicle (at least 250 ul) was also stored at −80° C. for inclusion in the HPLC analysis.
HPLC analysis was carried out on an extract of the tissue sample. Tissue samples were contacted with 3 ml of solvent (a 4:1 admixture of 2,2,4-trimethylpentane and isopropyl alcohol). The mixture was shaken for 15 minutes and stored overnight at room temperature, protected from light. The next morning 1 milliliter of water was added to the sample and shaken for 15 minutes. The sample was then centrifuged at approximately 1500 rpm for 15 minutes. Two ml of the organic phase (top layer) was transferred to a glass vial, dried at 37° C., under nitrogen, for approximately 1 hour, and then lyophilized for approximately 48 hours. The samples were then removed from the lyophilizer and each vial was reconstituted with 600 μl of solvent A (trimethylpentane/tetrahydrofuran (99:1). The samples were then recapped and vortexed for 5 minutes.
200 μl of each sample was then transferred to a pre-labeled 200 μl HPLC vial with 200 μL glass inserts. The HPLC vials were placed in the autosampler tray for the Agilent 1100 series HPLC unit. The Agilent 1100 HPLC system consisted of a thermostated autosampler, a quarternary pump, a column heater, and an A/D interface module. All components were controlled by Agilent ChemStation software. A Waters Spherisorb S3W 4.6×100 mm analytical column was maintained at 30° C. by the Agilent column heater unit. The HPLC autosampler was programmed to maintain the sample temperature at 20 C throughout the run.
10 uL of each sample was injected in triplicate into the column. Two solvents were used for the solvent gradient. Solvent A was an admixture of trimethylpentane and tetrahydrofuran (99:1). Solvent B was ethylacetate. The gradient utilized is described in the table below: […]
The Sedex 75 Evaporative Light Scattering Detector (ELSD) was operated at 45° C. with a gain of 5, and N2 pressure maintained at 3.1 bar. Analog signal obtained by the instrument was sent to the Agilent A/D interface module where it was converted to a digital output. The conversion was based on a 10000 mAU/volt set point and the data rate was set at 10 Hz (0.03 min). The resulting digital output was then feed into the Agilent ChemStation software for integration of the peak area.

[3] = Vehicle #1 (polyethylene glycol/transcutol/ethanol 20/20/60), topical twice daily, vs vehicle control

CSc1ccccc1Oc1ccc(C#N)cc1Cl [Example 5, 3-Chloro-4-(2-methylsulfanyl-phenoxy)-benzonitrile]
IC50 [1]: 311 nM | % CE Reduction [2, 3]: 27% | % WE Reduction [2, 3]: 39% | % WE & CE Reduction ([2]; Vehicle #1, topical twice daily, sum of WE and CE): 66%
